This passage reports Km results from publication PMC6826928, “A New Natural Antioxidant Biomaterial from Cinnamomum osmophloeum Kanehira Leaves Represses Melanogenesis and Protects against DNA Damage” (Antioxidants, 2019).

The subject of the experiment is T1, mushroom tyrosinase.
T1 construct: gene PPO3; commercial native preparation from Merck; likely isoenzyme mixture
Kind of experiment: absorbance at […] nm, Lineweaver–Burk plot. To be noted: no inhibitor, 0.2 M sodium phosphate pH 6.8, 25 °C. The class given is biochemical.

One may read the Km as the concentration of substrate that gives half-maximal velocity. Take `N[C@@H](Cc1ccc(O)c(O)c1)C(=O)O` [L-DOPA, L-3,4-dihydroxyphenylalanine]: the Michaelis constant (Km) (diphenolase activity) turned out to be 0.511 mg/mL.
Regarding `N[C@@H](Cc1ccc(O)cc1)C(=O)O` [L-tyrosine], the Km (monophenolase activity) came out at 0.534 mg/mL.
